Laboratory results published in ChEMBL document CHEMBL1122995, “1-[3-(Diarylamino)propyl]piperidines and related compounds, potential antipsychotic agents with low cataleptogenic profiles” (J Med Chem, 1985).
“And” between values parts separate entries of the source, which are not always exact repeats. Identical values can stand only once.

What was measured:
[1] = molecular target: Dopamine receptor (Rattus norvegicus) (UniProt P25115+P19020+P30729+P18901+P61169); test: Inhibition of [3H]haloperidol binding to dopamine receptors in rat striatal membranes at 10e-8 M.; type: cell membranes; conditions: Membrane
Mus musculus = test: Lowest active dose for the inhibition of locomotor screen falloff test, ip; type: functional
Dopamine receptor = test: Inhibition of [3H]haloperidol binding to dopamine receptors in rat striatal membranes.
Rattus norvegicus [2] = species: Rattus norvegicus; test: Effective dose determined by catalepsy test in rat; type: functional
Rattus norvegicus [3] = species: Rattus norvegicus; test: Effective dose determined by suppression of high base-line self-stimulation in adult male hooded rats; type: functional
Rattus norvegicus [4] = species: Rattus norvegicus; test: Effective dose against [3H]haloperidol binding in rat striatal membranes; type: functional; conditions: Striatum, Membrane

Structure (SMILES): O=[N+]([O-])c1ccc(N(CCCN2CCC(n3c(O)nc4ccccc43)CC2)c2ccccc2)cc1
- inhibition [1]: 17%
- LAD (Mus musculus): 100 mg/kg

Structure (SMILES): O=C1NCN(c2ccccc2)C12CCN(CCCN(c1ccc(F)cc1)c1ccc(F)cc1)CC2
- IC50 (Dopamine receptor): 0.61 nM
- LAD (Mus musculus): 5 mg/kg
- ED50 (Rattus norvegicus [2]): 81.2 mg/kg
- ED50 (Rattus norvegicus [3]): 1.65 mg/kg

Structure (SMILES): O=C1NCN(c2ccccc2)C12CCN(CCCN(c1ccc(F)cc1)c1cccc(Cl)c1)CC2
- LAD (Mus musculus): 30 mg/kg
- ED50 (Rattus norvegicus [2]): 289 mg/kg
- ED50 (Rattus norvegicus [3]): 12.7 mg/kg

Structure (SMILES): Oc1nc2ccccc2n1C1=CCN(CCCN(c2ccc(F)cc2)c2ccc(F)cc2)CC1
- LAD (Mus musculus): 30 mg/kg
- ED50 (Rattus norvegicus [2]): 105 mg/kg
- ED50 (Rattus norvegicus [3]): 5.55 mg/kg
- ED50 (Rattus norvegicus [4]): 0.32 nM

Structure (SMILES): O=C1NCN(c2ccccc2)C12CCN(CCCN(c1ccccc1)c1ccc(F)cc1)CC2
- LAD (Mus musculus): 30 mg/kg
- ED50 (Rattus norvegicus [2]): 156 mg/kg
- ED50 (Rattus norvegicus [3]): 11.7 mg/kg

Structure (SMILES): Cc1cc2nc(O)n(C3CCN(CCCN(c4ccc(F)cc4)c4ccc(F)cc4)CC3)c2cc1C
- LAD (Mus musculus): 30 mg/kg
- ED50 (Rattus norvegicus [3]): > 16 mg/kg

Structure (SMILES): Oc1nc2ccccc2n1C1CCN(CCCN(c2ccccc2)c2ccccc2)CC1
- LAD (Mus musculus): 30 mg/kg
- ED50 (Rattus norvegicus [3]): 13.2 mg/kg

Structure (SMILES): Fc1ccc(N(CCCN2CCC(n3c(S)nc4ccccc43)CC2)c2ccc(F)cc2)cc1
- LAD (Mus musculus): >100 mg/kg

Structure (SMILES): OC1(c2ccc(Cl)cc2)CCN(CCCN(c2ccc(F)cc2)c2ccc(F)cc2)CC1
- LAD (Mus musculus): 30 mg/kg
- ED50 (Rattus norvegicus [3]): 4.42 mg/kg

Structure (SMILES): Oc1nc2ccccc2n1C1CCN(CCCN(c2ccccc2)c2ccc(F)cc2)CC1
- inhibition [1]: 84%
- LAD (Mus musculus): 30 mg/kg
- ED50 (Rattus norvegicus [2]): 76 mg/kg
- ED50 (Rattus norvegicus [3]): 8.37 mg/kg

Structure (SMILES): O=C1NCN(c2ccccc2)C12CCN(CCCC(c1ccc(F)cc1)c1ccc(F)cc1)CC2
- LAD (Mus musculus): <10 mg/kg
- ED50 (Rattus norvegicus [2]): 10.8 mg/kg
- ED50 (Rattus norvegicus [3]): 1.28 mg/kg

Structure (SMILES): Oc1nc2ccccc2n1C1CCN(CCCN(c2ccc(F)cc2)c2ccccc2F)CC1
- inhibition [1]: 92%
- LAD (Mus musculus): 30 mg/kg
- ED50 (Rattus norvegicus [2]): 156 mg/kg
- ED50 (Rattus norvegicus [3]): 11.3 mg/kg

Structure (SMILES): O=C1NCN(c2ccccc2)C12CCN(CCN(c1ccc(F)cc1)c1ccc(F)cc1)CC2
- LAD (Mus musculus): 100 mg/kg

Structure (SMILES): Fc1ccc(N(CCCN2CCN(c3ccccc3)CC2)c2ccc(F)cc2)cc1
- LAD (Mus musculus): 100 mg/kg

Structure (SMILES): Oc1nc2ccccc2n1C1CCN(CCCN(c2ccccc2)c2cccc(Cl)c2)CC1
- LAD (Mus musculus): >100 mg/kg

Structure (SMILES): COc1ccccc1N1CCN(CCCN(c2ccc(F)cc2)c2ccc(F)cc2)CC1
- IC50 (Dopamine receptor): 13 nM
- LAD (Mus musculus): 30 mg/kg
- ED50 (Rattus norvegicus [2]): 160 mg/kg
- ED50 (Rattus norvegicus [3]): 5.5 mg/kg

Structure (SMILES): Oc1nc2cc(Cl)ccc2n1C1CCN(CCCN(c2ccc(F)cc2)c2ccc(F)cc2)CC1
- LAD (Mus musculus): >100 mg/kg

Structure (SMILES): O=C(c1ccc(Cl)cc1)C1CCN(CCCN(c2ccc(F)cc2)c2ccc(F)cc2)CC1
- LAD (Mus musculus): >100 mg/kg

Structure (SMILES): O=C1NCN(c2ccccc2)C12CCN(CCCCN(c1ccc(F)cc1)c1ccc(F)cc1)CC2
- LAD (Mus musculus): >100 mg/kg

Structure (SMILES): OCCN1CCN(CCCN(c2ccc(F)cc2)c2ccc(F)cc2)CC1
- LAD (Mus musculus): >100 mg/kg

Structure (SMILES): CN1CCN(C2=Nc3cc(Cl)ccc3Nc3ccccc32)CC1 [CLOZAPINE]
- LAD (Mus musculus): 10 mg/kg
- ED50 (Rattus norvegicus [2]): 133 mg/kg
- ED50 (Rattus norvegicus [3]): 14.3 mg/kg

Structure (SMILES): O=c1[nH]c2ccccc2n1C1CCN(CCCC(c2ccc(F)cc2)c2ccc(F)cc2)CC1 [PIMOZIDE]
- LAD (Mus musculus): <10 mg/kg and 30 mg/kg

Structure (SMILES): Oc1nc2cc(Cl)c(Cl)cc2n1C1CCN(CCCN(c2ccc(F)cc2)c2ccc(F)cc2)CC1
- LAD (Mus musculus): >100 mg/kg
